Assay results from patent publication EP4667482A1, “SALT OF DIPEPTIDE COMPOUND, PREPARATION METHOD THEREFOR, AND USE THEREOF” (Zhejiang Huahai Pharmaceutical Co., Ltd., priority 2023, dated 2024).
In brackets after ≈: the same amount, converted by molar mass. Where a name gives a salt, the structure may show the parent alone. Read-outs that look alike come from different tables or passages of the source.

Experiments:
[1] = Moisture adsorption / hygroscopicity (DVS); format: physicochemical; details: for Hygroscopicity: result in words
[2] = Stability at room temperature (10 days); format: physicochemical
[3] = Solid-state stability of Form III (mechanical milling; storage at 60 °C sealed); format: physicochemical
[4] = Accelerated stability test at 25 ± 2 °C, 60 ± 5% humidity; format: physicochemical
Description: The accelerated stability test data of the Form I at T = 25 ± 2 °C, 60 ± 5% humidity are as follows: […]

[5] = Description: Experimental animals: SD rats (body weight 200 to 300 g, sex: half of male and half of female)
The doses of 5, 10 and 20 mg/kg were administered by gavage, and blood was collected from the jugular vein at 5 min, 10 min, 20 min, 30 min, 1 h, 2 h, 4 h, 6 h, 8 h, 12 h and 24 h after the administration of the drug, processed, and analyzed for blood drug level by LC-MS/MS.
Data were processed using Phoenix WinNonlin 6.4 non-compartmental model to calculate the pharmacokinetic parameters of rats after drug administration, including t1/2, AUC0-t, AUC0-∞, Cl/F or Clss/F or Cl, Vz/F or Vss, MRT, Cmax, C5min, Tmax, and Cmin, Cavg, and AUC0-τ for multiple administrations to reach steady state, etc.

[6] = Blood drug level in the rat deep vein thrombosis model
Description: Preparation of solution: An appropriate amount of Form I was weighed, dissolved in a vehicle (0.5% (W/V) Natrosol™ 250 HX solution containing 0.1% (W/V) L(+)-tartaric acid) to formulate into the required concentration and then stirred uniformly, so that the drug was administered according to the predetermined dose.
Procedure: Rats were acclimatized for 3 days and randomly divided into three groups: model group, positive control group/subject group and bridging group, with 8 to 10 rats in each group. […] Rats in each group were anesthetized with urethane (20%, 5 mL/kg) via intraperitoneal injection. The abdominal cavity was exposed, the vena cava was bluntly separated, and two surgical sutures of 8 to 10 cm in length were placed under the blood vessels, both 1 cm apart. When the modeling time of each group was reached, rabbit thromboplastin (0.02 mg/kg) was injected into the left femoral vein, and the two sutures were knotted 10 s later, and the knotted portion of the suture was cut with ophthalmic scissors after 1 h. The thrombus was removed and weighed.

Solubility determination = format: physicochemical
[7] = test system: Rats model of deep vein thrombosis; assay: Rat model of deep vein thrombosis (thrombus weight); format: in vivo, SD rats; details: for Thrombosis inhibition rate (%) / Thrombus weight: oral gavage
From the text: Experimental animals: SD rats (body weight 220 to 250 g, sex: male)
The thrombus was removed and weighed.

## CCCCCCOC(=O)NC(=N)c1ccc(CNC(=O)[C@@H]2CCCN2C(=O)[C@@H](CC(C)C)NCC(=O)OCC)cc1 [Form B of the monohydrochloride]
[1]
  Moisture adsorption content (wt%): 3.0 wt%
  Hygroscopicity: Hygroscopic
[2]
  Stability at room temperature (10 days): White powder, crystalline form remains unchanged (10 days)

## CCCCCCOC(=O)NC(=N)c1ccc(CNC(=O)[C@@H]2CCCN2C(=O)[C@@H](CC(C)C)NCC(=O)OCC)cc1 [Form III]
[3]; 60 °C/sealed condition for 7 days
  crystalline form after storage: converted to Form I
[3]; after storage at 60 °C/sealed condition for 7 days
  purity: 89.35%
[3]; before storage at 60 °C/sealed condition
  purity: 95.81%
[3]; mechanical milling for 2 minutes
  crystalline form after mechanical milling: converted to Form I
[1]; 80% RH
  water absorption (DVS): 28.8%
[1]; 90% humidity
  water absorption (DVS): 50.0%

## CCCCCCOC(=O)NC(=N)c1ccc(CNC(=O)[C@@H]2CCCN2C(=O)[C@@H](CC(C)C)NCC(=O)OCC)cc1 [Form I]
[1]; 80% RH
  water absorption (DVS): 28.8%
[1]; 90% humidity
  water absorption (DVS): 49.9%
[1]; after DVS test
  solid form after DVS test: converted to amorphous form
[1]; high humidity
  behaviour of the sample at high humidity (DVS): undergoes deliquescence
[1]
  Hygroscopicity: Hygroscopic
[4]; 0 month
  Content (HPLC): 99.6%
  Hydrolyzed impurities: 0.19%
  Moisture: 0.4%
  Other individual impurities: <RL(0.05%)
  Total impurities: 0.42%
[4]; 1 month
  Content (HPLC): 99.3%
  Hydrolyzed impurities: 0.27%
  Moisture: 0.5%
  Other individual impurities: <RL(0.05%)
  Total impurities: 0.54%
[4]; 2 months
  Content (HPLC): 100.3%
  Hydrolyzed impurities: 0.28%
  Moisture: 0.3%
  Other individual impurities: <RL(0.05%)
  Total impurities: 0.56%
[4]; 3 months
  Content (HPLC): 100.3%
  Hydrolyzed impurities: 0.45%
  Moisture: 0.4%
  Other individual impurities: <RL(0.05%)
  Total impurities: 0.72%
[4]; 6 months
  Content (HPLC): 99.6%
  Hydrolyzed impurities: 0.51%
  Moisture: 0.3%
  Other individual impurities: <RL(0.05%)
  Total impurities: 1.02%
[5]; gavage 5 mg/kg, Female
  AUC0-t (h·ng/mL): 850+226 h·ng/mL
  AUC0-∞: 854 ± 224 ng·h/mL
  Cl/F: 104 ± 33 mL/min/kg
  Cmax: 522 ± 170 ng/mL
  MRT0-t: 1.6 ± 0.34 h
  MRT0-∞ (h): 1.7+0.38 h
  Tmax: 0.59 ± 0.29 h
  V2/F: 13.9 ± 6.75 L/kg
  t1/2: 1.5 ± 0.26 h
[5]; gavage 5 mg/kg, Male
  AUC0-t: 604 ± 182 ng·h/mL
  AUC0-∞: 606 ± 181 ng·h/mL
  Cl/F: 147 ± 41.7 mL/min/kg
  Cmax: 344 ± 163 ng/mL
  MRT0-t: 1.6 ± 0.20 h
  MRT0-∞: 1.7 ± 0.21 h
  Tmax: 0.66 ± 0.23 h
  V2/F: 18.1 ± 6.08 L/kg
  t1/2: 1.4 ± 0.32 h
[5]; gavage 5 mg/kg, Total
  AUC0-t: 727 ± 231 ng·h/mL
  AUC0-∞: 730 ± 231 ng·h/mL
  Cl/F: 126 ± 41.7 mL/min/kg
  Cmax: 433 ± 181 ng/mL
  MRT0-t: 1.6 ± 0.26 h
  MRT0-∞: 1.7 ± 0.28 h
  Tmax: 0.62 ± 0.24 h
  V2/F: 16.0 ± 6.37 L/kg
  t1/2: 1.5 ± 0.27 h
[5]; gavage 10 mg/kg, Female
  AUC0-t: 2060 ± 783 ng·h/mL
  AUC0-∞: 1830 ng·h/mL
  Cl/F: 92.3 mL/min/kg
  Cmax: 1120 ± 385 ng/mL
  MRT0-t: 1.6 ± 0.27 h
  MRT0-∞: 1.6 h
  Tmax: 0.75 ± 0.29 h
  V2/F: 20.1 L/kg
  t1/2: 2.6 h
[5]; gavage 10 mg/kg, Male
  AUC0-t: 1460 ± 324 ng·h/mL
  AUC0-∞: 1460 ± 324 ng·h/mL
  Cl/F: 118 ± 26.5 mL/min/kg
  Cmax: 934 ± 299 ng/mL
  MRT0-t: 1.6 ± 0.24 h
  MRT0-∞: 1.7 ± 0.20 h
  Tmax: 0.63 ± 0.25 h
  V2/F: 46.9 ± 24.6 L/kg
  t1/2: 4.5 ± 1.8 h
[5]; gavage 10 mg/kg, Total
  AUC0-t: 1760 ± 642 ng·h/mL
  AUC0-∞: 1590 ± 346 ng·h/mL
  Cl/F: 110 ± 25.5 mL/min/kg
  Cmax: 1030 ± 335 ng/mL
  MRT0-t: 1.6 ± 0.24 h
  MRT0-∞: 1.7 ± 0.26 h
  Tmax: 0.69 ± 0.26 h
  V2/F: 38.0 ± 23.6 L/kg
  t1/2: 3.9 ± 1.8 h
[5]; gavage 20 mg/kg, Female
  AUC0-t: 3840 ± 446 ng·h/mL
  AUC0-∞ (h·ng/mL): 3850+446 h·ng/mL
  Cl/F: 87.5 ± 10.2 mL/min/kg
  Cmax: 2170 ± 380 ng/mL
  MRT0-t (h): 1.7+0.19 h
  MRT0-∞: 1.8 ± 0.18 h
  Tmax: 0.50 ± 0.0 h
  V2/F: 30.8 ± 5.67 L/kg
  t1/2: 4.0 ± 0.35 h
[5]; gavage 20 mg/kg, Male
  AUC0-t (h·ng/mL): 4650+2440 h·ng/mL
  AUC0-∞: 4660 ± 2440 ng·h/mL
  Cl/F: 83 ± 29.8 mL/min/kg
  Cmax: 2230 ± 531 ng/mL
  MRT0-t: 1.8 ± 0.33 h
  MRT0-∞: 1.8 ± 0.32 h
  Tmax: 0.88 ± 0.25 h
  V2/F: 26.6 ± 17.0 L/kg
  t1/2: 3.7 ± 1.7 h
[5]; gavage 20 mg/kg, Total
  AUC0-t: 4250 ± 1680 ng·h/mL
  AUC0-∞: 4250 ± 1680 ng·h/mL
  Cl/F: 85.3 ± 20.8 mL/min/kg
  Cmax: 2200 ± 429 ng/mL
  MRT0-t: 1.8 ± 0.25 h
  MRT0-∞: 1.8 ± 0.25 h
  Tmax: 0.69 ± 0.26 h
  V2/F: 28.7 ± 11.9 L/kg
  t1/2: 3.9 ± 1.2 h
[6]; level of compound V after oral 2.5 mg/kg Form I, 2.5 mg/kg
  Blood drug level: 190.1 ng/mL
[6]; level of compound V after oral 2.5 mg/kg Form I, listed as Crystal form I, 2.5 mg/kg
  Blood drug level: 190.1 ± 62.9 ng/mL
[6]; level of compound V after oral 5 mg/kg Form I, 5 mg/kg
  Blood drug level: 181.3 ng/mL
[6]; level of compound V after oral 10 mg/kg Form I, 10 mg/kg
  Blood drug level: 341.9 ng/mL
[6]; level of compound V after oral 10 mg/kg Form I, listed as Crystal form I, 10 mg/kg
  Blood drug level: 341.9 ± 46.4 ng/mL
[6]; level of compound V after oral 20 mg/kg Form I, 20 mg/kg
  Blood drug level: 609.7 ng/mL
[6]; level of compound V after oral 20 mg/kg Form I, listed as Crystal form I, 20 mg/kg
  Blood drug level: 609.7 ± 174.0 ng/mL
Solubility determination; AC (Acetic acid)
  Solubility: >250 mg/mL
Solubility determination; ACN
  Solubility: >250 mg/mL
Solubility determination; DMSO
  Solubility: >250 mg/mL
Solubility determination; Diox
  Solubility: ~125 mg/mL (≈ 218 mM)
Solubility determination; EA
  Solubility: <0.3 mg/mL
Solubility determination; EtOH
  Solubility: >250 mg/mL
Solubility determination; Hept
  Solubility: <0.3 mg/mL
Solubility determination; IPA
  Solubility: ~167 mg/mL (≈ 291 mM)
Solubility determination; MEK
  Solubility: ~1.6 mg/mL (≈ 2.79 mM)
Solubility determination; MTBE
  Solubility: <0.3 mg/mL
Solubility determination; NBA
  Solubility: ~167 mg/mL (≈ 291 mM)
Solubility determination; THF
  Solubility: ~11.1 mg/mL (≈ 19.3 mM)
Solubility determination; Tol
  Solubility: <0.3 mg/mL
Solubility determination; Water
  Solubility: >250 mg/mL
Solubility determination; acetonitrile and dichloromethane
  Solubility: readily soluble
Solubility determination; buffer solutions with different pH values (1.2 to 13.0)
  Solubility: Highly soluble
Solubility determination; n-heptane and N, N-diisopropyl ethylamine
  Solubility: almost insoluble or insoluble
[7]; 2.5 mg/kg
  Thrombosis inhibition rate (%): 27.0%
  Thrombus weight: 51.9 ± 8.3 mg
[7]; 5 mg/kg
  Thrombosis inhibition rate (%): 54.7%
  Thrombus weight: 32.1 ± 5.7 mg
[7]; 10 mg/kg
  Thrombus weight: 21.3 ± 5.1 mg
[7]; 20 mg/kg
  Thrombosis inhibition rate (%): 79.7%
  Thrombus weight: 14.4 ± 3.6 mg
[7]; at the same dose
  antithrombotic efficacy compared with dabigatran etexilate: basically equivalent

## CCCCCCOC(=O)NC(=N)c1ccc(CNC(=O)[C@@H]2CCCN2C(=O)[C@@H](CC(C)C)NCC(=O)OCC)cc1 [dihydrochloride]
Solubility determination; water, result in words
  aqueous solubility: excellent aqueous solubility
